In patent US10500318B1, “Dosing regimens for treating hypoxia-associated tissue damage” (Temple Therapeutics BV, priority 2018, dated 2019):
Residues, ends and D or L forms follow the SMILES beside them.

Columns and labels:
HIF-1α = HIF-1α ELISA in normal peritoneal fibroblasts after episodic hypoxia and Ala-Gln treatment; type: cell-based; settings: for HIF-1α 12 hours after hypoxia initiation / HIF-1α 24 hours after hypoxia initiation: NPF
Procedure: Primary cultures of normal peritoneal fibroblasts (NPF) were established and pre-hypoxia samples were taken to determine levels of HIF-1α and Type 1 Collagen (COL1A1) under normoxic conditions prior to exposure to episodic hypoxic environments. Cultured cells were exposed to episodes of hypoxia (2% 02; 0.5, 1, 2, or 4, […] hours), followed by restoration of normoxia (20% O2) and immediate treatment with Ala-[…], 1, 2, or 10 mM). Levels of HIF-1α and COL1A1 were measured at 12 hours and 24 hours following the initiation of hypoxia. All treatments were completed in triplicate. HIF-1α and COL1A1 levels were determined by ELISA (HIF-1α ELISA (ThermoFisher Scientific) or COL1A1 ELISA (LifeSpan Biosciences), respectively, per the manufacturer's protocol). Data were analyzed with one-way ANOVA followed by Tukey's tests with Bonferroni correction. Results for HIF-1α are in Tables 1-3.

[1] = at room temperature; cited from earlier work

Structure (SMILES): C[C@H](N)C(=O)N[C@@H](CCC(N)=O)C(=O)O [AG, L-alanyl-L-glutamine] (H-Ala-Gln-OH)
- HIF-1α difference from untreated controls (HIF-1α; AG 1.0 mM, 12 h post hypoxia initiation, hypoxia time 0.5 h): 3.6 pg/mg protein
- HIF-1α difference from untreated controls (HIF-1α; AG 1.0 mM, 12 h post hypoxia initiation, hypoxia time 1.0 h): 2.3 pg/mg protein
- HIF-1α difference from untreated controls (HIF-1α; AG 1.0 mM, 12 h post hypoxia initiation, hypoxia time 2.0 h): 2.4 pg/mg protein
- HIF-1α difference from untreated controls (HIF-1α; AG 1.0 mM, 12 h post hypoxia initiation, hypoxia time 4.0 h): 0.9 pg/mg protein
- HIF-1α difference from untreated controls (HIF-1α; AG 1.0 mM, 24 h post hypoxia initiation, hypoxia time 0.5 h): 1.6 pg/mg protein
- HIF-1α difference from untreated controls (HIF-1α; AG 1.0 mM, 24 h post hypoxia initiation, hypoxia time 1.0 h): 3.1 pg/mg protein
- HIF-1α difference from untreated controls (HIF-1α; AG 1.0 mM, 24 h post hypoxia initiation, hypoxia time 2.0 h): 1.8 pg/mg protein
- HIF-1α difference from untreated controls (HIF-1α; AG 1.0 mM, 24 h post hypoxia initiation, hypoxia time 4.0 h): 0.7 pg/mg protein
- HIF-1α 12 hours after hypoxia initiation (HIF-1α; AG 1.0 mM, hypoxia time 0.5 h): 4.2 pg/mg protein
- HIF-1α 24 hours after hypoxia initiation (HIF-1α; AG 1.0 mM, hypoxia time 0.5 h): 3.6 pg/mg protein
- HIF-1α 12 hours after hypoxia initiation (HIF-1α; AG 1.0 mM, hypoxia time 1.0 h): 4.6 pg/mg protein
- HIF-1α 24 hours after hypoxia initiation (HIF-1α; AG 1.0 mM, hypoxia time 1.0 h): 4.6 pg/mg protein
- HIF-1α 12 hours after hypoxia initiation (HIF-1α; AG 1.0 mM, hypoxia time 2.0 h): 3.3 pg/mg protein
- HIF-1α 24 hours after hypoxia initiation (HIF-1α; AG 1.0 mM, hypoxia time 2.0 h): 3.3 pg/mg protein
- HIF-1α 12 hours after hypoxia initiation (HIF-1α; AG 1.0 mM, hypoxia time 4.0 h): 4.9 pg/mg protein
- HIF-1α 24 hours after hypoxia initiation (HIF-1α; AG 1.0 mM, hypoxia time 4.0 h): 4.9 pg/mg protein
- HIF-1α difference from untreated controls (HIF-1α; AG 2.0 mM, 12 h post hypoxia initiation, hypoxia time 0.5 h): 3.1 pg/mg protein
- HIF-1α difference from untreated controls (HIF-1α; AG 2.0 mM, 12 h post hypoxia initiation, hypoxia time 1.0 h): 4.5 pg/mg protein
- HIF-1α difference from untreated controls (HIF-1α; AG 2.0 mM, 12 h post hypoxia initiation, hypoxia time 2.0 h): 2.5 pg/mg protein
- HIF-1α difference from untreated controls (HIF-1α; AG 2.0 mM, 12 h post hypoxia initiation, hypoxia time 4.0 h): 1.4 pg/mg protein
- HIF-1α difference from untreated controls (HIF-1α; AG 2.0 mM, 24 h post hypoxia initiation, hypoxia time 0.5 h): 1.1 pg/mg protein
- HIF-1α difference from untreated controls (HIF-1α; AG 2.0 mM, 24 h post hypoxia initiation, hypoxia time 1.0 h): 5.3 pg/mg protein
- HIF-1α difference from untreated controls (HIF-1α; AG 2.0 mM, 24 h post hypoxia initiation, hypoxia time 2.0 h): 1.9 pg/mg protein
- HIF-1α difference from untreated controls (HIF-1α; AG 2.0 mM, 24 h post hypoxia initiation, hypoxia time 4.0 h): 1.2 pg/mg protein
- HIF-1α 12 hours after hypoxia initiation (HIF-1α; AG 2.0 mM, hypoxia time 0.5 h): 4.7 pg/mg protein
- HIF-1α 24 hours after hypoxia initiation (HIF-1α; AG 2.0 mM, hypoxia time 0.5 h): 4.1 pg/mg protein
- HIF-1α 12 hours after hypoxia initiation (HIF-1α; AG 2.0 mM, hypoxia time 1.0 h): 2.4 pg/mg protein
- HIF-1α 24 hours after hypoxia initiation (HIF-1α; AG 2.0 mM, hypoxia time 1.0 h): 2.4 pg/mg protein
- HIF-1α 12 hours after hypoxia initiation (HIF-1α; AG 2.0 mM, hypoxia time 2.0 h): 3.2 pg/mg protein
- HIF-1α 24 hours after hypoxia initiation (HIF-1α; AG 2.0 mM, hypoxia time 2.0 h): 3.2 pg/mg protein
- HIF-1α 12 hours after hypoxia initiation (HIF-1α; AG 2.0 mM, hypoxia time 4.0 h): 4.4 pg/mg protein
- HIF-1α 24 hours after hypoxia initiation (HIF-1α; AG 2.0 mM, hypoxia time 4.0 h): 4.4 pg/mg protein
- HIF-1α difference from untreated controls (HIF-1α; AG 10.0 mM, 12 h post hypoxia initiation, hypoxia time 0.5 h): 2.6 pg/mg protein
- HIF-1α difference from untreated controls (HIF-1α; AG 10.0 mM, 12 h post hypoxia initiation, hypoxia time 1.0 h): 3.0 pg/mg protein
- HIF-1α difference from untreated controls (HIF-1α; AG 10.0 mM, 12 h post hypoxia initiation, hypoxia time 2.0 h): 1.6 pg/mg protein
- HIF-1α difference from untreated controls (HIF-1α; AG 10.0 mM, 12 h post hypoxia initiation, hypoxia time 4.0 h): 0.3 pg/mg protein
- HIF-1α difference from untreated controls (HIF-1α; AG 10.0 mM, 24 h post hypoxia initiation, hypoxia time 0.5 h): 1.6 pg/mg protein
- HIF-1α difference from untreated controls (HIF-1α; AG 10.0 mM, 24 h post hypoxia initiation, hypoxia time 1.0 h): 3.8 pg/mg protein
- HIF-1α difference from untreated controls (HIF-1α; AG 10.0 mM, 24 h post hypoxia initiation, hypoxia time 2.0 h): 1 pg/mg protein
- HIF-1α difference from untreated controls (HIF-1α; AG 10.0 mM, 24 h post hypoxia initiation, hypoxia time 4.0 h): 0.1 pg/mg protein
- HIF-1α 12 hours after hypoxia initiation (HIF-1α; AG 10.0 mM, hypoxia time 0.5 h): 5.2 pg/mg protein
- HIF-1α 24 hours after hypoxia initiation (HIF-1α; AG 10.0 mM, hypoxia time 0.5 h): 3.6 pg/mg protein
- HIF-1α 12 hours after hypoxia initiation (HIF-1α; AG 10.0 mM, hypoxia time 1.0 h): 3.9 pg/mg protein
- HIF-1α 24 hours after hypoxia initiation (HIF-1α; AG 10.0 mM, hypoxia time 1.0 h): 3.9 pg/mg protein
- HIF-1α 12 hours after hypoxia initiation (HIF-1α; AG 10.0 mM, hypoxia time 2.0 h): 4.1 pg/mg protein
- HIF-1α 24 hours after hypoxia initiation (HIF-1α; AG 10.0 mM, hypoxia time 2.0 h): 4.1 pg/mg protein
- HIF-1α 12 hours after hypoxia initiation (HIF-1α; AG 10.0 mM, hypoxia time 4.0 h): 5.5 pg/mg protein
- HIF-1α 24 hours after hypoxia initiation (HIF-1α; AG 10.0 mM, hypoxia time 4.0 h): 5.5 pg/mg protein
- HIF-1α difference from untreated controls (HIF-1α; Average all doses, 12 h post hypoxia initiation, hypoxia time 0.5 h): 3.1 pg/mg protein
- HIF-1α difference from untreated controls (HIF-1α; Average all doses, 12 h post hypoxia initiation, hypoxia time 1.0 h): 3.27 pg/mg protein
- HIF-1α difference from untreated controls (HIF-1α; Average all doses, 12 h post hypoxia initiation, hypoxia time 2.0 h): 2.17 pg/mg protein
- HIF-1α difference from untreated controls (HIF-1α; Average all doses, 12 h post hypoxia initiation, hypoxia time 4.0 h): 0.87 pg/mg protein
- HIF-1α difference from untreated controls (HIF-1α; Average all doses, 24 h post hypoxia initiation, hypoxia time 0.5 h): 1.43 pg/mg protein
- HIF-1α difference from untreated controls (HIF-1α; Average all doses, 24 h post hypoxia initiation, hypoxia time 1.0 h): 4.07 pg/mg protein
- HIF-1α difference from untreated controls (HIF-1α; Average all doses, 24 h post hypoxia initiation, hypoxia time 2.0 h): 1.57 pg/mg protein
- HIF-1α difference from untreated controls (HIF-1α; Average all doses, 24 h post hypoxia initiation, hypoxia time 4.0 h): 0.67 pg/mg protein
- effect on HIF-1α as compared to untreated cells (HIF-1α; at 12 and 24 hours, all durations of hypoxia): reduction of HIF-1α

Structure (SMILES): NC(=O)CC[C@H](N)C(=O)O [L-glutamine]
- water solubility [1]: about 40 g/L
